US8952024B2, “Herbicidal pyrimidone derivatives” (E I du Pont de Nemours and Company, priority 2009, dated 2015)

Columns and labels:
Assay type in all cases: in vivo
[1] = test system: bermudagrass (Cynodon dactylon); test: Test B pre-/postemergence plant response
Outline: (§1)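 Response scores were assigned visually after 13 to 15 days in a greenhouse, comparing treated pots with controls on a 0–100 scale where 100 denotes complete control. Preemergence treatments went onto freshly seeded loam/sand soil; postemergence treatments onto plants 2 to 18 cm tall.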

[2] = test system: pigweed (Amaranthus retroflexus); test: Test B pre-/postemergence plant response
Outline: as §1

[3] = test system: corn (Zea mays); test: Test B pre-/postemergence plant response
Outline: as §1

[4] = test system: giant foxtail (Setaria faberii); test: Test B pre-/postemergence plant response
Outline: as §1

[5] = test system: velvetleaf (Abutilon theophrasti); test: Test B pre-/postemergence plant response
Outline: as §1

[6] = test system: morningglory (Ipomoea coccinea); test: Test B pre-/postemergence plant response
Outline: as §1

[7] = test system: blackgrass (Alopecurus myosuroides); test: Test B pre-/postemergence plant response
Outline: as §1

[8] = test system: green foxtail (Setaria viridis); test: Test B pre-/postemergence plant response
Outline: as §1

[9] = test system: goosegrass (Eleusine indica); test: Test B pre-/postemergence plant response
Outline: as §1

[10] = test system: ragweed (common ragweed, Ambrosia elatior); test: Test B pre-/postemergence plant response
Outline: as §1

[11] = test system: soybean (Glycine max); test: Test B pre-/postemergence plant response
Outline: as §1

[12] = test system: johnsongrass (Sorghum halepense); test: Test B pre-/postemergence plant response
Outline: as §1

[13] = test system: Italian ryegrass (Lolium multiflorum); test: Test B pre-/postemergence plant response
Outline: as §1

[14] = test system: downy bromegrass (Bromus tectorum); test: Test B pre-/postemergence plant response
Outline: as §1

[15] = test system: wheat (Triticum aestivum); test: Test B pre-/postemergence plant response
Outline: as §1

[16] = test system: winter barley (Hordeum vulgare); test: Test B postemergence plant response; settings: Postemergence
Outline: (§2)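 Visual ratings from 0 (no effect) to 100 (complete control), made against controls 13–15 days after treatment, kept in a greenhouse. Compounds were applied postemergence to potted plants at the 1- to 4-leaf stage (2–18 cm).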

[17] = test system: chickweed (Stellaria media); test: Test B postemergence plant response; settings: Postemergence
Outline: as §2

[18] = test system: canarygrass (Phalaris minor); test: Test B postemergence plant response; settings: Postemergence
Outline: as §2

[19] = 250 g ai/ha, Preemergence, 0 to 100 scale
[20] = Postemergence, 31 g ai/ha, scale 0 to 100 (0 no effect, 100 complete control)
[21] = Postemergence, 62 g ai/ha, scale 0 (no effect) to 100 (complete control), 13 to 15 days
[22] = Postemergence, 125 g ai/ha, visual rating after 13 to 15 days, scale 0 (no effect) to 100 (complete control)
[23] = Postemergence, 250 g ai/ha, scale 0 to 100
[24] = Preemergence, 31 g ai/ha, scale 0 to 100 (0 no effect, 100 complete control)
[25] = Preemergence, 62 g ai/ha, scale 0 to 100, 0 no effect, 100 complete control
[26] = Preemergence, 125 g ai/ha, 0 to 100 scale
[27] = 31 g ai/ha, scale 0 to 100 (0 no effect, 100 complete control)
[28] = 62 g ai/ha, scale 0 (no effect) to 100 (complete control), 13 to 15 days
[29] = 125 g ai/ha, visual rating after 13 to 15 days, scale 0 (no effect) to 100 (complete control)

O=C1CCCC(O)=C1C(=O)c1cnc(-c2ccccc2)n(-c2ccccc2Br)c1=O [Compound 37]
Plant response rating, Bermudagrass [1, 19]: 100 | Plant response rating, Bermudagrass [1, 20]: 85 | Plant response rating, Bermudagrass [1, 21]: 90 | Plant response rating, Bermudagrass [1, 22]: 98 | Bermudagrass plant response rating [1, 23]: 100 | Plant response rating, Bermudagrass [1, 24]: 10 | Plant response rating, Bermudagrass [1, 25]: 80 | Bermudagrass plant response rating [1, 26]: 98 | Plant response rating, Pigweed [2, 19]: 100 | Plant response rating, Pigweed [2, 21]: 85 | Plant response rating, Pigweed [2, 22]: 98 | Plant response rating, Pigweed [2, 24]: 100 | Pigweed plant response rating [2, 26]: 100 | Plant response rating, Corn [3, 19]: 0 | Plant response rating, Corn [3, 20]: 0 | Plant response rating, Corn [3, 21]: 15 | Plant response rating, Corn [3, 22]: 60 | Corn plant response rating [3, 23]: 75 | Plant response rating, Corn [3, 24]: 0 | Plant response rating, Corn [3, 25]: 0 | Corn plant response rating [3, 26]: 0 | Plant response rating, Foxtail, Giant [4, 19]: 75 | Plant response rating, Foxtail, Giant [4, 20]: 70 | Plant response rating, Foxtail, Giant [4, 21]: 85 | Plant response rating, Foxtail, Giant [4, 22]: 95 | Foxtail, Giant plant response rating [4, 23]: 100 | Plant response rating, Foxtail, Giant [4, 24]: 0 | Plant response rating, Foxtail, Giant [4, 25]: 0 | Foxtail, Giant plant response rating [4, 26]: 0 | Plant response rating, Velvetleaf [5, 19]: 98 | Plant response rating, Velvetleaf [5, 21]: 80 | Plant response rating, Velvetleaf [5, 22]: 95 | Plant response rating, Velvetleaf [5, 24]: 0 | Velvetleaf plant response rating [5, 26]: 20 | Plant response rating, Morningglory [6, 19]: 0 | Plant response rating, Morningglory [6, 21]: 70 | Plant response rating, Morningglory [6, 22]: 75 | Plant response rating, Morningglory [6, 24]: 0 | Plant response rating, Morningglory [6, 25]: 0 | Morningglory plant response rating [6, 26]: 0 | Plant response rating, Blackgrass [7, 19]: 10 | Plant response rating, Blackgrass [7, 20]: 0 | Plant response rating, Blackgrass [7, 21]: 0 | Plant response rating, Blackgrass [7, 22]: 5 | Blackgrass plant response rating [7, 23]: 30 | Plant response rating, Blackgrass [7, 24]: 0 | Plant response rating, Blackgrass [7, 25]: 0 | Blackgrass plant response rating [7, 26]: 5 | Plant response rating, Foxtail, Green [8, 19]: 90 | Plant response rating, Foxtail, Green [8, 20]: 60 | Plant response rating, Foxtail, Green [8, 21]: 65 | Plant response rating, Foxtail, Green [8, 22]: 85 | Foxtail, Green plant response rating [8, 23]: 95 | Plant response rating, Foxtail, Green [8, 24]: 0 | Plant response rating, Foxtail, Green [8, 25]: 0 | Foxtail, Green plant response rating [8, 26]: 0 | Plant response rating, Goosegrass [9, 19]: 100 | Plant response rating, Goosegrass [9, 21]: 85 | Plant response rating, Goosegrass [9, 22]: 85 | Goosegrass plant response rating [9, 23]: 95 | Plant response rating, Goosegrass [9, 24]: 0 | Goosegrass plant response rating [9, 26]: 80 | Plant response rating, Ragweed [10, 19]: 98 | Plant response rating, Ragweed [10, 21]: 80 | Plant response rating, Ragweed [10, 22]: 95 | Plant response rating, Ragweed [10, 24]: 0 | Ragweed plant response rating [10, 26]: 65 | Plant response rating, Soybean [11, 19]: 35 | Plant response rating, Soybean [11, 21]: 80 | Plant response rating, Soybean [11, 22]: 95 | Plant response rating, Soybean [11, 24]: 0 | Soybean plant response rating [11, 26]: 0 | Plant response rating, Johnsongrass [12, 19]: 90 | Plant response rating, Johnsongrass [12, 21]: 40 | Plant response rating, Johnsongrass [12, 22]: 60 | Johnsongrass plant response rating [12, 23]: 85 | Plant response rating, Johnsongrass [12, 24]: 0 | Plant response rating, Johnsongrass [12, 25]: 0 | Johnsongrass plant response rating [12, 26]: 45 | Plant response rating, Ryegrass, Italian [13, 19]: 0 | Plant response rating, Ryegrass, Italian [13, 21]: 0 | Plant response rating, Ryegrass, Italian [13, 22]: 5 | Plant response rating, Ryegrass, Italian [13, 24]: 0 | Ryegrass, Italian plant response rating [13, 26]: 0 | Plant response rating, Bromegrass, Downy [14, 19]: 0 | Plant response rating, Bromegrass, Downy [14, 20]: 0 | Plant response rating, Bromegrass, Downy [14, 21]: 10 | Plant response rating, Bromegrass, Downy [14, 22]: 15 | Bromegrass, Downy plant response rating [14, 23]: 45 | Plant response rating, Bromegrass, Downy [14, 24]: 0 | Plant response rating, Bromegrass, Downy [14, 25]: 0 | Bromegrass, Downy plant response rating [14, 26]: 0 | Plant response rating, Wheat [15, 19]: 0 | Plant response rating, Wheat [15, 21]: 0 | Plant response rating, Wheat [15, 22]: 0 | Plant response rating, Wheat [15, 24]: 0 | Wheat plant response rating [15, 26]: 0 | Plant response rating, Barley [16, 27]: 0 | Plant response rating, Barley [16, 28]: 0 | Plant response rating, Barley [16, 29]: 0 | Barley plant response rating ([16]; 250 g ai/ha, scale 0 to 100): 0 | Plant response rating, Chickweed [17, 27]: 80 | Plant response rating, Chickweed [17, 28]: 80 | Plant response rating, Chickweed [17, 29]: 85 | Chickweed plant response rating ([17]; 250 g ai/ha, scale 0 to 100): 100 | Plant response rating, Canarygrass [18, 27]: 0 | Plant response rating, Canarygrass [18, 28]: 5 | Plant response rating, Canarygrass [18, 29]: 10 | Canarygrass plant response rating ([18]; 250 g ai/ha, scale 0 to 100): 30
